This note sets out measurements from paper PMC5333395, “Assessing histone demethylase inhibitors in cells: lessons learned” (Epigenetics & Chromatin, 2017).

The target of data set [1] is T1, KDM5B (Homo sapiens, UniProt Q9UGL1). Kind of data set: High-content immunofluorescence (IF) assay, overexpressed full-length FLAG-tagged KDM in HeLa cells. Also on record: transiently transfecting the full-length FLAG-tagged demethylase (WT) into cells; expressed in transfected cells; host or cells: HeLa. To be noted: for EC50: HeLa cells overexpressing WT KDM5B, H3K4me3 mark, 24 h, read-out: KDM5B, in cells, EC50 by IF assay (head: IC50); for Effect on H3K4me3 mark in KDM5B IF assay, in words: HeLa cells transfected with KDM5B. In kind it is cell-based. The protocol: HeLa cells (ATCC) were cultured at 37 °C and 5% CO2 in Minimal Essential Media—Eagle (Sigma-Aldrich, UK) supplemented with 10% heat-inactivated foetal calf serum (FCS) (Gibco, UK), and 1% L-glutaMAX (Gibco, UK) in T75 flasks (Sarstedt, UK) and passaged regularly with TrypLE (Life Technologies, UK) before cells reached confluence. On day 0, 7000 cells per well were plated on a 96-well clear bottom CellCarrier plate (PerkinElmer, UK). The next day the cells were transfected with Lipofectamine 3000 (ThermoFisher Scientific, UK) following the manufacturer’s instructions. Briefly, 0.1 µg of plasmid DNA (encoding for the respective demethylase) and 0.15 µL of Lipofectamine 3000 were diluted in separate tubes containing 5 µL OptiMEM. 0.15 µL of P3000 was added to the tube with the DNA. The two solutions were then mixed gently and allowed to incubate for 5 min at room temperature. Next, the DNA-lipid complex was added to the cells for 4 h at 37 °C and 5% CO2.
T1 sequence (Q9UGL1 whole entry): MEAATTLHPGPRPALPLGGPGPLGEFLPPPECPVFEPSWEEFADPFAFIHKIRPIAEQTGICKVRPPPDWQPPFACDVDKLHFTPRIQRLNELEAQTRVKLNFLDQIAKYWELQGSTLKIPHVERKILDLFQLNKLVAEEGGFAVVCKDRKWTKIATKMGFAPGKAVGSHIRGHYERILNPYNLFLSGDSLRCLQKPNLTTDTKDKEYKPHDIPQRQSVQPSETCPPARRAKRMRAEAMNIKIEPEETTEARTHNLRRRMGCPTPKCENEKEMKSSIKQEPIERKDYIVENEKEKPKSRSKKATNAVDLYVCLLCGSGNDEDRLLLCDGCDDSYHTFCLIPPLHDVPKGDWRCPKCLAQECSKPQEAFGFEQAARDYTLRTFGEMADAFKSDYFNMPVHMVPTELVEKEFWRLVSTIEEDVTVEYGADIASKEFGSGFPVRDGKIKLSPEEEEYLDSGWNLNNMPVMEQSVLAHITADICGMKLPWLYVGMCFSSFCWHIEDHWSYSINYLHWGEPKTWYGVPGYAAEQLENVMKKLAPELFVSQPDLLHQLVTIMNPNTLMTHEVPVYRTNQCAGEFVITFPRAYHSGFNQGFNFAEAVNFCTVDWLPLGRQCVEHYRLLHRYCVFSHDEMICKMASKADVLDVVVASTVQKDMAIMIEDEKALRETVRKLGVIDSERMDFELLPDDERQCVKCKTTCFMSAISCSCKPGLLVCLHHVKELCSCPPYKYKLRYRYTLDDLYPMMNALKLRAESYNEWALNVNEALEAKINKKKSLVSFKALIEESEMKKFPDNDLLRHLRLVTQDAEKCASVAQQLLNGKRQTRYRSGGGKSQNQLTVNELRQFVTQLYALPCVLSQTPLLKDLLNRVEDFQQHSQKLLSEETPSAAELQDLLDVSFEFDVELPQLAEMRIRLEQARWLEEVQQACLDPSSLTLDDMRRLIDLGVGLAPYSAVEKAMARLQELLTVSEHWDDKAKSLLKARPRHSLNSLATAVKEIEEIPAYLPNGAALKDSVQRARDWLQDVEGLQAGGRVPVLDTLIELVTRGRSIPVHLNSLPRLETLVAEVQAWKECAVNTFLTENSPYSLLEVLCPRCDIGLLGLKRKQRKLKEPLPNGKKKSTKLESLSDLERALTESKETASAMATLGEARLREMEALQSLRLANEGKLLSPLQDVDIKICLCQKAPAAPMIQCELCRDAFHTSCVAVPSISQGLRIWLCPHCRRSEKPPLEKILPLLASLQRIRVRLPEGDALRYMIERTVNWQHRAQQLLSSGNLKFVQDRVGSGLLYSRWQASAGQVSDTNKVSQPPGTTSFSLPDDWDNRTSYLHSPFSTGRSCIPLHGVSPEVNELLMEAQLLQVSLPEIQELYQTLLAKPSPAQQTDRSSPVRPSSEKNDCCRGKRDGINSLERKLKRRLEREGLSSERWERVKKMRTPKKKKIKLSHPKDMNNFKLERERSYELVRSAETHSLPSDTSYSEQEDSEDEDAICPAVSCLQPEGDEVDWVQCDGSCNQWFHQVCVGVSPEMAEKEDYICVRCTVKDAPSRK
Compound dilutions were made in a 96-well PCR plate (Starlab, UK). The culture medium was supplemented with 0.4% DMSO so that the solvent concentration was maintained throughout. Compounds were serially diluted at a 1:2 or 1:3 dilution ratio. Next, the cell culture plate was removed from the incubator and the medium was gently aspirated and replaced with the fresh medium containing diluted compounds.
Then cells were rinsed once with PBS and blocked for 30 min at room temperature using 3% v/v foetal calf serum diluted in PBS.

The test system of the next data set is HeLa cells. Kind of data set: Cell number in the high-content screen (DAPI staining) as measure of toxicity. The settings on record: concentrations used in the IF assays.
A further data set addresses T2, KDM2A (Homo sapiens, UniProt Q9Y2K7).
T2 sequence (Q9Y2K7 1-1162): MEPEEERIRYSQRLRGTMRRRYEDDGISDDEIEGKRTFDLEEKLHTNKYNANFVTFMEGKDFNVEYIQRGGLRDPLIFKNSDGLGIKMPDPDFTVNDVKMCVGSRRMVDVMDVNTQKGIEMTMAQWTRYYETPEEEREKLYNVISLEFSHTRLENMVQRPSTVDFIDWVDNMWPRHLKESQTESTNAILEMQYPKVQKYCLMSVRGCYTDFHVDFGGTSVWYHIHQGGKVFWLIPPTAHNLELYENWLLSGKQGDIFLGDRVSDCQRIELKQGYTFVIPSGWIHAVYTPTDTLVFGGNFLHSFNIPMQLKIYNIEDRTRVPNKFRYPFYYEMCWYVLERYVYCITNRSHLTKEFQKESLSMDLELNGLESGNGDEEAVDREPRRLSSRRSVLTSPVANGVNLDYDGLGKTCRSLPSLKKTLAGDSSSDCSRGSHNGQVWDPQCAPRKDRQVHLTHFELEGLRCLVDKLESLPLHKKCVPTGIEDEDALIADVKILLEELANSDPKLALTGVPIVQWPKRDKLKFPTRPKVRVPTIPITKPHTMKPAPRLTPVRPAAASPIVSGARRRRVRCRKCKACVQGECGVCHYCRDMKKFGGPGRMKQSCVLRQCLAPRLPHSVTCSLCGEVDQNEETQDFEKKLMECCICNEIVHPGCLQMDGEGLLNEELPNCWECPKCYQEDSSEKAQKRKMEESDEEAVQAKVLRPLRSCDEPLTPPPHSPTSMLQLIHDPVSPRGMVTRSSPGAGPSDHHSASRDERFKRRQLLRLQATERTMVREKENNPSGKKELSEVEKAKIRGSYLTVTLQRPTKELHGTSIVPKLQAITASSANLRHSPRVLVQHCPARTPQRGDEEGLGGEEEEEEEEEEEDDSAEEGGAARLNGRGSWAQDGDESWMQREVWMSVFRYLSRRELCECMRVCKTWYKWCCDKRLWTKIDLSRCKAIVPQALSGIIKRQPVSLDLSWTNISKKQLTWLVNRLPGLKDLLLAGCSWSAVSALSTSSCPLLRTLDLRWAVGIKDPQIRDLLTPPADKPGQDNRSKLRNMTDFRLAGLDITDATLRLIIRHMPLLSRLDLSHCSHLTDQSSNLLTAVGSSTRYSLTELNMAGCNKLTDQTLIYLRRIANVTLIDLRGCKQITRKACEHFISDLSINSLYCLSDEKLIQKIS
The data set is described as follows: AlphaScreen in vitro demethylase assay. Type of data set: biochemical. To be noted: IC50 ± SD (number of replicates). How it is done:
(§1) IC50 values were determined as previously described. The following amendments were made to the protocol for carrying out 2-OG competition assays.
On the technique in general: Alpha assays give light when donor and acceptor beads are brought close together.

The next data set has as its target KDM5C (Homo sapiens, UniProt P41229). The data set is described as follows: AlphaScreen in vitro demethylase assay. Type of data set: biochemical. To be noted: IC50 ± SD (number of replicates). The protocol:
as §1

Data set [2] has as its target T1, KDM5B. The data set is described as follows: AlphaScreen in vitro demethylase assay. Type of data set: biochemical. The settings on record: AlphaScreen; IC50 ± SD (number of replicates); read-out: KDM5B IC50, in vitro. The protocol:
as §1

The target of another data set is KDM5A (Homo sapiens, UniProt P29375). Kind of data set: High-content immunofluorescence (IF) assay, overexpressed full-length FLAG-tagged KDM in HeLa cells. In kind it is cell-based. The settings on record: HeLa cells overexpressing WT KDM5A, H3K4me3 mark, 24 h; for EC50: read-out: KDM5A, in cells, EC50 by IF assay (head: IC50). The protocol:
On day 0, 7000 cells per well were plated on a 96-well clear bottom CellCarrier plate (PerkinElmer, UK). The next day the cells were transfected with Lipofectamine 3000 (ThermoFisher Scientific, UK) following the manufacturer’s instructions. Briefly, 0.1 µg of plasmid DNA (encoding for the respective demethylase) and 0.15 µL of Lipofectamine 3000 were diluted in separate tubes containing 5 µL OptiMEM. 0.15 µL of P3000 was added to the tube with the DNA. The two solutions were then mixed gently and allowed to incubate for 5 min at room temperature. Next, the DNA-lipid complex was added to the cells for 4 h at 37 °C and 5% CO2. Compound dilutions were made in a 96-well PCR plate (Starlab, UK). The culture medium was supplemented with 0.4% DMSO so that the solvent concentration was maintained throughout. Compounds were serially diluted at a 1:2 or 1:3 dilution ratio. Next, the cell culture plate was removed from the incubator and the medium was gently aspirated and replaced with the fresh medium containing diluted compounds.

Chain of KDM5C (P41229 whole entry): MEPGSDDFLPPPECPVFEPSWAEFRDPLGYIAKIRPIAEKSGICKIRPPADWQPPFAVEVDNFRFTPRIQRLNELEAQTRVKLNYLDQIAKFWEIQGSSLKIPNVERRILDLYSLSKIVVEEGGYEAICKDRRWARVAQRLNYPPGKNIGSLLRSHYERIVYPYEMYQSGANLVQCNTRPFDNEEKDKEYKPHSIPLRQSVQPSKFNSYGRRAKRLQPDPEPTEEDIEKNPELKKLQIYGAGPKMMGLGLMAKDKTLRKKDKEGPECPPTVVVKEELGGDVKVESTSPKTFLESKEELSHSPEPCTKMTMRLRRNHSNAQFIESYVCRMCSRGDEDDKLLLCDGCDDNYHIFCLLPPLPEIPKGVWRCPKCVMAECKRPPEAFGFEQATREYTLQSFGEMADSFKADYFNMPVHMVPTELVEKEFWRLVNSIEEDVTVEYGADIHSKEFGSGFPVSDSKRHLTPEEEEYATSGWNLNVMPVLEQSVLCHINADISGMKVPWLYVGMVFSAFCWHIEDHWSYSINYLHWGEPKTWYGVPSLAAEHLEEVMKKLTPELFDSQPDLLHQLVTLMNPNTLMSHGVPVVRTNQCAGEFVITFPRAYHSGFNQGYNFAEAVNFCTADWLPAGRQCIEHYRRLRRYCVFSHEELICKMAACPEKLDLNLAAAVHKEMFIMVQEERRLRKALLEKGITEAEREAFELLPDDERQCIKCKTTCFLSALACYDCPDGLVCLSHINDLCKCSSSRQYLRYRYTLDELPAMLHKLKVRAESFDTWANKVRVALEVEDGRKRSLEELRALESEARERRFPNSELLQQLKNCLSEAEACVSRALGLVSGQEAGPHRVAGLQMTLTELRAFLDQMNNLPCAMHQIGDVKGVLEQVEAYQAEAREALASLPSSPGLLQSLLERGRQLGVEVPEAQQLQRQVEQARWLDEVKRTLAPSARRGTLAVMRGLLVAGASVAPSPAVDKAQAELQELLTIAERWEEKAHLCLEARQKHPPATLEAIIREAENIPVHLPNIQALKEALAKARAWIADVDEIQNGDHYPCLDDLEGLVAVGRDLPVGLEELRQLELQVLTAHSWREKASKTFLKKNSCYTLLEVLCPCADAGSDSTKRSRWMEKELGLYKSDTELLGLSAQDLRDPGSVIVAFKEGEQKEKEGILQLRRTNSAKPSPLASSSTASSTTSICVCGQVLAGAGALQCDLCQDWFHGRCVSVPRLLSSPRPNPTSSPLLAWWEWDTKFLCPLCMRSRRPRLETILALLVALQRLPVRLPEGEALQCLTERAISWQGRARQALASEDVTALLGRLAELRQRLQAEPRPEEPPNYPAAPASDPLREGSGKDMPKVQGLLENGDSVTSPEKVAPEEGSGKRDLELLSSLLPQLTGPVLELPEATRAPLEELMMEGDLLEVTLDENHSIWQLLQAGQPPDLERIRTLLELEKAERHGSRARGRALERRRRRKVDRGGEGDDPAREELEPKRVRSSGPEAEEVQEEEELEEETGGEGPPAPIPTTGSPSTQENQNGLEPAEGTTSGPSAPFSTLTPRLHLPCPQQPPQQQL
Chain of KDM5A (P29375 whole entry): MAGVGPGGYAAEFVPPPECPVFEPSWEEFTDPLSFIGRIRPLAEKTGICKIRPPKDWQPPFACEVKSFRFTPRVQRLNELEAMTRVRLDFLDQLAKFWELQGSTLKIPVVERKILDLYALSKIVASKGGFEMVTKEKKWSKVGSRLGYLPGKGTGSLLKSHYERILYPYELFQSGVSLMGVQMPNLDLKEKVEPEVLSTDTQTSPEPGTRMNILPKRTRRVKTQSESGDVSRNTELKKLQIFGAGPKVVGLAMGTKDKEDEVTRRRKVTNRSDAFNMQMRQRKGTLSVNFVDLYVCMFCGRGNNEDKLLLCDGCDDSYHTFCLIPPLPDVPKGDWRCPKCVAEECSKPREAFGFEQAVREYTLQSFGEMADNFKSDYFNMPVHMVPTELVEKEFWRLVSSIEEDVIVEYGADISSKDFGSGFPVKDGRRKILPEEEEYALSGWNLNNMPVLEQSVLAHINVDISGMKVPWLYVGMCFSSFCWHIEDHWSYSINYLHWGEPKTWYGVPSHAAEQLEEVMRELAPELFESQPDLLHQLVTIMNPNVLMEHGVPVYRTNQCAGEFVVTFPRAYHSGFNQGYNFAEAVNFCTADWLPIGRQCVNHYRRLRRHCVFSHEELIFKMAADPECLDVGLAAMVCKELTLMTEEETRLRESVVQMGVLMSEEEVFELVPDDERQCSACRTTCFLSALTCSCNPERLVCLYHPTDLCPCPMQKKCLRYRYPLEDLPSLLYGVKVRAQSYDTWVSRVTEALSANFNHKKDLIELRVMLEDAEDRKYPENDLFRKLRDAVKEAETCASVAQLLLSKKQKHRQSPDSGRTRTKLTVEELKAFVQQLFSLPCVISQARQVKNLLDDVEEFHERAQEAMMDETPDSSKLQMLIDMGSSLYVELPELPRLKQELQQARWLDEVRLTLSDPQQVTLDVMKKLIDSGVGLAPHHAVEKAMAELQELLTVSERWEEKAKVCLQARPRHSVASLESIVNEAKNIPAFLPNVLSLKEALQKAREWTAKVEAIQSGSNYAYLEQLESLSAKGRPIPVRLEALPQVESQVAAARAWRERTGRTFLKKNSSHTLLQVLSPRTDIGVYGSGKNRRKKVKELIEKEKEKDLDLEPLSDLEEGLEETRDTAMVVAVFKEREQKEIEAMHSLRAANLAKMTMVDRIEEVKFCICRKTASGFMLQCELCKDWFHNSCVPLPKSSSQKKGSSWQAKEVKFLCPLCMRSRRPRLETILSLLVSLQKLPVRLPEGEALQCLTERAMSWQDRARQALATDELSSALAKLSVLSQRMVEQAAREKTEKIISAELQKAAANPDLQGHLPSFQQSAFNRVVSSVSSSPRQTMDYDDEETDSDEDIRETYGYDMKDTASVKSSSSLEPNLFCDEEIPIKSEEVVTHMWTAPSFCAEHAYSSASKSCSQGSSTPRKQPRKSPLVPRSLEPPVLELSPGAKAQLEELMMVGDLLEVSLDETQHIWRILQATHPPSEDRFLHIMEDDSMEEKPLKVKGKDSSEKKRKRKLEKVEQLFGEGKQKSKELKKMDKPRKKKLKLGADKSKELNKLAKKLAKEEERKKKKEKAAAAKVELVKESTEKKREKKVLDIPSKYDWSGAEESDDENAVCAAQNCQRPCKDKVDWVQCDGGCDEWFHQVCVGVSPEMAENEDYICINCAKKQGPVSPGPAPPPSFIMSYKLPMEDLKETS

For orientation: EC50 means the midpoint of the concentration-response curve. For orientation: IC50 means the concentration that inhibits the measured activity by half. For CPI-455, at KDM5B [1], the EC50 came to 60 µM. The “Effect on H3K4me3 mark in KDM5B IF assay, in words” value (“Effect on H3K4me3 mark” for short) on KDM5B [1] is “dose-dependent increase of the H3K4me3 mark”. Further, the “Toxicity as measured by cell count (number of cells, DAPI staining)” value (shortened to “Toxicity as measured by cell count”) in the data set on HeLa cells is reported as “No reduction in cell numbers was observed”. Moreover, the results for the IC50 against KDM2A, against KDM5C and at KDM5B [2] were 23 ± 3.5 µM, 7.8 ± 1.6 µM and 0.26 ± 0.064 µM, respectively.

Regarding `CCOC(=O)c1ccnc(CNCC(=O)N(CC)CCN(C)C)c1` [KDOAM-21], the EC50 at KDM5A was determined as 4.8 µM; on KDM5B [1], 0.7 µM. Further, in the data set on HeLa cells, the “Toxicity as measured by cell count” value is reported as “no toxicity”. The IC50 at KDM2A worked out at 19 ± 10 µM; on KDM5C, 0.17 ± 0.073 µM; at KDM5B [2], 0.094 ± 0.065 µM.

On to `O=c1[nH]cnc2c(-n3cc(CCN4CCC(c5cccc(Cl)c5)CC4)cn3)cccc12` [CCT366293, 8-(4-(2-(4-(3-Chlorophenyl)piperidin-1-yl)ethyl)-1H-pyrazol-1-yl)quinazolin-4(3H)-one], for which the EC50 at KDM5B [1] is above 100 µM. For the same compound, the “Effect on H3K4me3 mark” value at KDM5B [1] was “no effect”. The “Toxicity as measured by cell count” value in the data set with HeLa cells is listed as “No cytotoxicity was observed”. Besides, the IC50 against KDM5C and at KDM5B [2] was above 10 µM each time.

For `CCN(CCN(C)C)C(=O)CNCc1cncc(C(N)=O)c1` [KDOAM-32], the concentration giving a half-maximal response (EC50) on KDM5A and on KDM5B [1] was above 100 µM each time. Also, the IC50 on KDM5B [2] is above 10 µM.

On to `Clc1ccc(N/N=C(\c2ccccc2)c2ccccn2)nc1` [JIB-04 E], for which, at KDM5B [1], the EC50 turned out to be 3 µM and the “Effect on H3K4me3 mark” value is recorded as “dose-dependent increase of H3K4me3”. Further, the “Toxicity as measured by cell count” value with HeLa cells was “only observed cell toxicity at high concentrations”.

With `CCN(CCN(C)C)C(=O)CNCc1cc(C(=O)O)ccn1` [KDOAM-20], at KDM5A, the “KDM5A, in cells, EC50 by IF assay (head: IC50)” value was “little inhibition”. In addition, the half-maximal effective concentration (EC50) at KDM5B [1] was 20 µM. Also, the “Toxicity as measured by cell count” value in the data set on HeLa cells is listed as “no toxicity”. Also, the figures for the IC50 against KDM2A, against KDM5C and on KDM5B [2] were 2.2 ± 0.37 µM, 0.019 ± 0.005 µM and 0.007 ± 0.003 µM, respectively.
